# From patent publication US20230348453A1, “HALOGENATED-HETEROARYL AND OTHER HETEROCYCLIC KINASE INHIBITORS, AND USES THEREOF” (iOmx Therapeutics AG, priority 2020, published 2023)
# Tests used:
# [1] = microsomes
# [2] = target: SIK3 (Homo sapiens (Human), UniProt Q9Y2K2); settings: read-out: SIK3 IC50
# [3] = Murine plasma protein binding; settings: Table 5A
# [4] = target: SIK1 (Homo sapiens (Human), UniProt P57059); settings: read-out: SIK1 IC50
# [5] = target: SIK2 (Homo sapiens (Human), UniProt Q9H0K1); settings: read-out: SIK2 IC50
# [6] = Human plasma-protein binding; settings: Table 5A
# [7] = target: ABL1 wt (Homo sapiens (Human), UniProt P00519); assay type: biochemical
# Sequence of ABL1 wt (P00519 118-535 limits assumed): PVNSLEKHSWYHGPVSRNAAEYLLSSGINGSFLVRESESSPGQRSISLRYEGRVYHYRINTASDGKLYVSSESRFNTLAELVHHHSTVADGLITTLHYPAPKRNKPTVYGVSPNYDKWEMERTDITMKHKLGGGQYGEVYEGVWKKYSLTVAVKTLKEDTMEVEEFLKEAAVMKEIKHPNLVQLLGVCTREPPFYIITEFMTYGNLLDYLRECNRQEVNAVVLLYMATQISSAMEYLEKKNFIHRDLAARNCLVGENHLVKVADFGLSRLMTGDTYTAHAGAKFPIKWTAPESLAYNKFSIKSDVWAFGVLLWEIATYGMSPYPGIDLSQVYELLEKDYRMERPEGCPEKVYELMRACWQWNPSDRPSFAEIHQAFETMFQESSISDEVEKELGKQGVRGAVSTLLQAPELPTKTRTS
# [8] = target: SRC (GST-HIS-tag) (Homo sapiens (Human), UniProt P12931); assay type: biochemical
# [9] = microsomes; remark: listed apart in the source
# [10] = system: AML; settings: administered intraperitoneally; cited from earlier work
# [11] = in vivo; cited from earlier work
smiles,measurement,setting,value
Cc1nc(Nc2ncc(C(=O)Nc3c(C)noc3C)s2)cc(N2CCN(CCO)CC2)n1 [Compound C9],"Human liver microsomal stability, Intrinsic clearance",[1],<14 L/min/mg
same,"Human liver microsomal stability, % Remaining at 40 min (%)",[1]; 40 min,89%
same,IC50,[2],800 nM
same,"Murine plasma protein binding, Percentage unbound (%)",[3],44%
same,IC50,[4],169 nM
same,IC50,[5],232 nM
same,"Human plasma-protein binding, Percentage unbound (%)",[6],6%
same,IC50,[7],27.4 nM
same,IC50,[8],6.44 nM
same,"Mouse liver microsomal stability, Intrinsic clearance (L/min/mg)",[9],<14
same,"Mouse liver microsomal stability, % Remaining at 40 min (%)",[9]; 40 min,83%
COc1ccc(N2C(=O)N(c3c(C)cccc3Cl)Cc3cnc(Nc4ccc(C5CCN(C)CC5)cc4OC)nc32)nc1 [YKL-05-099],AML progression,[10],supressed AML progression in-vivo
Cc1cn(-c2cc(NC(=O)c3ccc(C)c(Nc4nccc(-c5cccnc5)n4)c3)cc(C(F)(F)F)c2)cn1 [nilotinib],terminal / elimination half-life,[11],approximately 17 hours
